The record followed here is patent publication US5998648A, “Anticancer (IV) complexes for oral administration and a method of making the same” (Korea Institute of Science and Technology, priority 1997, dated 1999).

The nature of one series: Acute toxicity. It counts as in vivo.
For a further series, the system named is L1210 leukemia. Kind of series: Oral anticancer activity (survival time of L1210 leukemia-implanted BDF1 mice). The series is classed as in vivo, BDF1 mice; L1210 cells from DBA/2 mice. The note with it: for Increase ratio in the survival time (T/C, %): Dose 150 mg/kg, daily for consecutive five days, L1210 implanted intraperitoneally. As for the experimental part:
The oral anticancer activity of the hexa-coordinate platinum(IV) complexes of the present invention was evaluated as follows. A group of eight 6-week old BDF1 mice was employed to test for each compound. 1×10^5 cells of L1210 leukemia in ascitic fluid from DBA/2 mice were implanted intraperitoneally in each mouse. The test solutions containing platinum(IV) complexes at different concentrations were orally administered daily for consecutive five days. The survival time of each group of the mice was recorded. The percent increase in the survival time as compared to the control group, T/C (%), was calculated as an indicator of the anticancer activity. The results are summarized in Table I. Drugs that have more than 125% of the T/C (%) values can be considered as efficient anticancer drugs. […] It is expected that the complex in Example 1 could be practically applicable since the acute toxicity was also low (LD50 =300 mg/kg)

For the compound `CCC(=O)[O][Pt]([O]C(=O)CC)([O]C(=O)CC)[O]C(=O)CC.NC1CCCCC1N` [Example 1], the “acute toxicity / toxicity (in words)” value in the series “Acute toxicity” (in vivo) is recorded as “low”. For the same compound, the “acute toxicity LD50” value in “Acute toxicity” (species and route not given) was found to be 300 mg/kg. Besides, in the series with L1210 leukemia, the “anticancer activity (in words)” value is reported as “excellent anticancer activity” and the “Increase ratio in the survival time (T/C, %)” value (from here on “Increase ratio … (T/C, %)”) turned out to be 160.9%. With `CCCC(=O)[O][Pt]1([O]C(=O)CCC)([O]C(=O)CCC)([O]C(=O)CCC)[NH]C2CCCCC2[NH]1` (stereo not drawn) [Example 2], in the series with L1210 leukemia, the “Increase ratio … (T/C, %)” value was found to be 139.1%. With `CCCC(=O)[O][Pt]1([O]C(=O)CCC)([O]C(=O)CCC)([O]C(=O)CCC)[NH]CC[NH]1` [Example 4, (NH2 CH2 CH2 NH2)Pt(OOCC3 H7)4], in the series on L1210 leukemia, the “Increase ratio … (T/C, %)” value came out at 115.4%.

On to `[OH][Pt]1([OH])([OH])([OH])[NH]C2CCCCC2[NH]1` (stereo not drawn) [compound 1, (DACH)Pt(OH)4, reference compound], for which, in the series on L1210 leukemia, the “Increase ratio … (T/C, %)” value stood at 108.8%.

“(DACH)PtCl2 (OAc)4 [compound 2, reference compound]”: in the series on L1210 leukemia, the “Increase ratio … (T/C, %)” value was 103.1%. Regarding “[NH2 CH2 C(CH3)2 CH2 NH2 ]Pt(OOCC2 H5)4 [Example 6]”, the “Increase ratio … (T/C, %)” value in the series with L1210 leukemia came out at 130.8%.
